Experimental data published in patent US20250134890A1, “ANTIMALARIAL HEXAHYDROPYRIMIDINE ANALOGUES” (UCB BIOPHARMA SRL, priority 2022, published 2025).
Counter-ions that a name gives are not always drawn. Like-named read-outs stand apart in the source and are kept apart here.

Test system: Plasmodium falciparum: 3D7 strain
Assay: P. falciparum 3D7 asexual blood stage assay (SYBR green readout)
Format: cell-based
Conditions: Plasmodium falciparum, P. falciparum 3D7 in human erythrocytes, 72 h incubation, SYBR green fluorescence
Outline: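 3D7-infected erythrocytes (5% haematocrit, 0.5% parasitaemia) were exposed 72 h at 37 °C under 1% O2/3% CO2 to a 20-point titration (50,000-15 nM final, 0.5% DMSO). Parasite DNA was read by SYBR green fluorescence after overnight lysis. Percent inhibition was set against mefloquine and DMSO, and EC50 came from a biphasic two-site fit.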

Row | Compound | IC50 (3D7, Erythrocyte, 72 h) [nM] | IC50 (Erythrocyte, read-out: IC50) [nM]
1 | C[C@@]1(c2cccc(-c3cncc(Cl)c3)c2Cl)CC(=O)N([C@@H]2CCC(F)(F)[C@H](O)C2)C(=N)N1 (relative stereo) [Example 23, (6S)-6-[2-Chloro-3-(5-chloro-pyridin-3-yl)phenyl]-3-[(1R*,3R*)-4,4-difluoro-3-hydroxycyclohexyl]-2-imino-6-methylhexahydro-pyrimidin-4-one hydrochloride] | 158 | 
2 | Cc1cc(-c2cccc([C@]3(C)CC(=O)N([C@H]4CCO[C@@H](C)C4)C(=N)N3)c2Cl)on1 [Example 32, (6S)-6-[2-Chloro-3-(3-methyl-isoxazol-5-yl)phenyl]-2-imino-6-methyl-3-[(2S,4S)-2-methyl-tetrahydropyran-4-yl]hexahydro-pyrimidin-4-one trifluoroacetic acid salt] | 50 | 
3 | CN(C)[C@H]1C[C@H](N2C(=N)N[C@](C)(c3cccc(-c4ccc(F)cc4F)c3Cl)CC2=O)C1 (single isomer, unassigned; isomer 1) [Example 88] |  | 657
4 | C[C@H]1C[C@H](N2C(=N)N[C@](C)(c3cccc(-c4ccc(OC(F)(F)F)nc4)c3Cl)CC2=O)CCS1(=O)=O (relative stereo) [Example 80, (6S)-6-{2-Chloro-3-[6-(trifluoro-methoxy)pyridin-3-yl]phenyl}-2-imino-6-methyl-3-[(2S*,4R*)-2-methyl-1,1-dioxothian-4-yl]-hexahydropyrimidin-4-one hydrochloride] | 1700 | 
5 | C[C@H]1C[C@@H](N2C(=N)N[C@](C)(c3cccc(-c4cccc(Cl)c4)c3Cl)CC2=O)CCO1 [Example 17, (6S)-6-[2-Chloro-3-(3-chloro-phenyl)phenyl]-2-imino-6-methyl-3-[(2S,4S)-2-methyltetrahydro-pyran-4-yl]hexahydropyrimidin-4-one trifluoroacetic acid salt] | 92 | 
6 | C[C@H]1C[C@@H](N2C(=N)N[C@](C)(c3cccc(-c4cccc(NS(C)(=O)=O)c4)c3Cl)CC2=O)CCC1(F)F [Example 13, N-[3-(2-Chloro-3-{(4S)-1-[(1S,3S)-4,4-difluoro-3-methylcyclohexyl]-2-imino-4-methyl-6-oxohexahydro-pyrimidin-4-yl}phenyl)phenyl]-methanesulfonamide trifluoroacetic acid salt] | 10 | 
7 | CC(n1cc(-c2cccc([C@]3(C)CC(=O)N([C@H]4CCO[C@@H](C)C4)C(=N)N3)c2Cl)nn1)C12CC(CO1)C2 (stereo partly drawn) [Example 125, (6S)-6-(2-Chloro-3-{1-[1-(2-oxa-bicyclo[2.1.1]hexan-1-yl)ethyl]-1,2,3-triazol-4-yl}phenyl)-2-imino-6-methyl-3-[(2S,4S)-2-methyl-tetrahydropyran-4-yl]hexahydro-pyrimidin-4-one trifluoroacetic acid salt] | 220 | 
8 | C[C@H]1C[C@@H](N2C(=N)N[C@](C)(c3cccc(-c4ccc5ncn(CC(F)(F)F)c5c4)c3Cl)CC2=O)CCO1 [Example 6, (6S)-6-{2-Chloro-3-[3-(2,2,2-trifluoroethyl)benzimidazol-5-yl]-phenyl}-2-imino-6-methyl-3-[(2S,4S)-2-methyltetrahydropyran-4-yl]hexahydropyrimidin-4-one hydrochloride] | 26 | 
9 | C[C@H]1C[C@@H](N2C(=N)N[C@](C)(c3cccc(-c4cn(C5CCCNCC5)nn4)c3Cl)CC2=O)CCO1 (stereo partly drawn) [Example 129, (6S)-6-{3-[1-(Azepan-4-yl)-1,2,3-triazol-4-yl]-2-chlorophenyl}-2-imino-6-methyl-3-[(2S,4S)-2-methyltetrahydropyran-4-yl]-hexahydropyrimidin-4-one trifluoroacetic acid salt] | 11900 | 
10 | C[C@H]1C[C@@H](N2C(=N)N[C@](C)(c3cccc(-c4cccc(C#N)c4)c3Cl)CC2=O)CCO1 [Example 40, 3-(2-Chloro-3-{(4S)-2-imino-4-methyl-1-[(2S,4S)-2-methyl-tetrahydropyran-4-yl]-6-oxo-hexahydropyrimidin-4-yl}phenyl)-benzonitrile trifluoroacetic acid salt] | 50 | 
11 | C[C@@H]1C[C@H](N2C(=N)N[C@](C)(c3cccc(-c4cncc(Cl)c4)c3Cl)CC2=O)CC[C@@H]1O (relative stereo) [Example 83, (6S)-6-[2-Chloro-3-(5-chloro-pyridin-3-yl)phenyl]-3-[(1R*,3R*,4S*)-4-hydroxy-3-methylcyclohexyl]-2-imino-6-methylhexahydropyrimidin-4-one hydrochloride] | 52 | 
12 | C[C@H]1C[C@@H](N2C(=N)N[C@](C)(c3cccc(-c4cccc(C(O)C(F)(F)F)c4)c3Cl)CC2=O)CCO1 (single isomer, unassigned) [Example 28, (6S)-6-(2-Chloro-3-{3-[(1S*)-2,2,2-trifluoro-1-hydroxyethyl]phenyl}-phenyl)-2-imino-6-methyl-3-[(2S,4S)-2-methyltetrahydropyran-4-yl]hexahydropyrimidin-4-one hydrochloride] | 26 | 
13 | C[C@H]1C[C@@H](N2C(=N)N[C@](C)(c3cccc(-c4cn(Cc5ccncc5)nn4)c3Cl)CC2=O)CCO1 [Example 120, (6S)-6-{2-Chloro-3-[1-(pyridin-4-ylmethyl)-1,2,3-triazol-4-yl]-phenyl}-2-imino-6-methyl-3-[(2S,4S)-2-methyltetrahydropyran-4-yl]hexahydropyrimidin-4-one trifluoroacetic acid salt] | 507 | 
14 | C[C@@]1(c2cccc(-c3cn(-c4cccc(F)c4)nn3)c2Cl)CC(=O)N([C@H]2CCC(F)(F)[C@@H](O)C2)C(=N)N1 (relative stereo) [Example 108, (6S)-6-{2-Chloro-3-[1-(3-fluoro-phenyl)-1,2,3-triazol-4-yl]phenyl}-3-[(1S*,3S*)-4,4-difluoro-3-hydroxycyclohexyl]-2-imino-6-methylhexahydropyrimidin-4-one hydrochloride] | 325 | 
15 | C[C@H]1C[C@@H](N2C(=N)N[C@](C)(c3cccc(-c4cncc(Cl)c4)c3Cl)CC2=O)CC[C@H]1O (relative stereo) [Example 82, (6S)-6-[2-Chloro-3-(5-chloro-pyridin-3-yl)phenyl]-3-[(1S*,3S*,4R*)-4-hydroxy-3-methylcyclohexyl]-2-imino-6-methylhexahydropyrimidin-4-one hydrochloride] | 265 | 
16 | C[C@H]1C[C@@H](N2C(=N)N[C@](C)(c3cccc(-c4cccc(N5CCOCC5)c4)c3Cl)CC2=O)CCO1 [Example 29, (6S)-6-{2-Chloro-3-[3-(morpholin-4-yl)phenyl]phenyl}-2-imino-6-methyl-3-[(2S,4S)-2-methyl-tetrahydropyran-4-yl]hexahydro-pyrimidin-4-one trifluoroacetic acid salt] | 65 | 
17 | C[C@H]1C[C@@H](N2C(=N)N[C@](C)(c3cccc(-c4cn(Cc5cccnc5)nn4)c3Cl)CC2=O)CCO1 [Example 117, (6S)-6-{2-Chloro-3-[1-(pyridin-3-ylmethyl)-1,2,3-triazol-4-yl]-phenyl}-2-imino-6-methyl-3-[(2S,4S)-2-methyltetrahydropyran-4-yl]hexahydropyrimidin-4-one trifluoroacetic acid salt] | 371 | 
18 | C[C@H]1C[C@@H](N2C(=N)N[C@](C)(c3cccc(-c4cn([C@@H](C)c5cccnc5)nn4)c3Cl)CC2=O)CCO1 [Example 115, (6S)-6-(2-Chloro-3-{1-[(1S)-1-(pyridin-3-yl)ethyl]-1,2,3-triazol-4-yl}phenyl)-2-imino-6-methyl-3-[(2S,4S)-2-methyltetrahydropyran-4-yl]hexahydropyrimidin-4-one trifluoroacetic acid salt] | 210 | 
